Counter-ions that a name gives are not always drawn.
Work on `N#Cc1c(-c2cccc(C(=O)N3CCOCC3)c2)cc(-c2ccccc2O)nc1NC(=O)c1cccs1` [Example 36, N-{3-cyano-6-(2-hydroxyphenyl)-4-[3-(morpholin-4-ylcarbonyl)phenyl]pyridin-2-yl}thiophene-2-carboxamide] yielded a melting point of 253 to 254 °C.
With `CN(C)C[C@@H](C(=O)Nc1cccc(-c2cc(-c3ccc(F)cc3O)nc(NC(=O)c3ccco3)c2C#N)c1)N(C)C` (as salt: hydrochloride) [Example 305, N-[3-cyano-4-(3-{[3-(dimethylamino)-N,N-dimethyl-L-alanyl]amino}phenyl)-6-(4-fluoro-2-hydroxyphenyl)pyridin-2-yl]-2-furamide dihydrochloride] the melting point was 195 to 200 °C.
`CNCC(=O)Nc1cccc(-c2cc(-c3ccccc3O)nc(NC(=O)c3cccs3)c2C#N)c1.Cl` gave a melting point of 248 to 254 °C.
With `N#Cc1c(-c2cccc(N)c2)cc(-c2ccccc2O)nc1NC(=O)c1ccccc1` [Example 28, N-[4-(3-aminophenyl)-3-cyano-6-(2-hydroxyphenyl)pyridin-2-yl]benzamide] the melting point was 259 to 261 °C.
For `Cl.N#Cc1c(-c2cccc(NC(=O)[C@@H]3CCCN3)c2)cc(-c2ccccc2O)nc1NC(=O)c1cccs1`, the melting point was 210 to 218 °C.
`Cl.N#Cc1c(-c2cccc(C(=O)N3CCNCC3)c2)cc(-c2ccccc2O)nc1NC(=O)c1cccs1` showed a melting point of 232 to 236 °C.
For `Nc1cccc(-c2cc(NC(=O)c3cccs3)nc(-c3ccccc3O)c2)c1` [Example 25, N-[4-(3-aminophenyl)-6-(2-hydroxyphenyl)pyridin-2-yl]thiophene-2-carboxamide], the melting point was 161 to 162 °C.
`CC(=O)NCCC(=O)Nc1cccc(-c2cc(-c3ccc(Cl)cc3O)nc(NC(=O)c3cccs3)c2C#N)c1` [Example 59, N-[4-{3-[(N-acetyl-β-alanyl)amino]phenyl}-6-(4-chloro-2-hydroxyphenyl)-3-cyanopyridin-2-yl]thiophene-2-carboxamide] showed a melting point of 209 to 210 °C.
With `COc1ccccc1C(=O)Nc1nc(-c2ccc(Cl)cc2O)cc(-c2cccc(C(=O)NCCN)c2)c1C#N.Cl` the melting point was 227 to 229 °C.
For `N#Cc1c(-c2cccc(C(=O)NC3CCCNC3)c2)cc(-c2ccccc2O)nc1NC(=O)c1ccccn1` (centres unmarked) (as salt: hydrochloride) [Example 10, N-(3-cyano-6-(2-hydroxyphenyl)-4-{3-[(piperidin-3-ylamino)carbonyl]phenyl}pyridin-2-yl)pyridin-2-carboxamide dihydrochloride], the melting point was 204 to 210 °C.
`CCCC(CC(=O)Nc1cccc(-c2cc(-c3ccc(F)cc3O)nc(NC(=O)c3ccco3)c2C#N)c1)N(CC)CC` (centres unmarked) (as salt: hydrochloride) [Example 317, N-[3-cyano-4-(3-{[3-(diethylamino)hexanoyl]amino}phenyl)-6-(4-fluoro-2-hydroxyphenyl)pyridin-2-yl]-2-furamide hydrochloride] showed a melting point of 195 to 197 °C.
Work on `Cl.N#Cc1c(-c2cccc(C(=O)NC3CCCNC3)c2)cc(-c2ccccc2O)nc1NC(=O)c1cccs1` (centres unmarked) yielded a melting point of 232 to 233 °C.
With `CC(C)(C)OC(=O)NCCC(=O)Nc1cccc(-c2cc(-c3ccccc3O)nc(NC(=O)c3ccccc3)c2C#N)c1` [Example 30, tert-butyl[3-({3-[2-(benzoylamino)-3-cyano-6-(2-hydroxyphenyl)pyridin-4-yl]phenyl}amino)-3-oxopropyl]carbamate] the melting point was 220 to 221 °C.
Work on `N#Cc1c(-c2cccc(NC(=O)CCN)c2)cc(-c2cc(Cl)ccc2O)nc1NC(=O)c1cccs1` (as salt: trifluoroacetate) [Example 46, N-{4-[3-(β-alanylamino)phenyl]-6-(5-chloro-2-hydroxyphenyl)-3-cyanopyridin-2-yl}thiophene-2-carboxamide trifluoroacetate] yielded a melting point of 197 to 204 °C.
Molecule `CN(C(=O)CN)c1cccc(-c2cc(-c3ccccc3O)nc(NC(=O)c3cccs3)c2C#N)c1` (as salt: hydrochloride) [Example 41, N-[3-cyano-4-{3-[glycyl(methyl)amino]phenyl}-6-(2-hydroxyphenyl)pyridin-2-yl]thiophene-2-carboxamide dihydrochloride] has a melting point of 198 to 205 °C.
Work on `Cl.NCCC(=O)Nc1cccc(-c2cc(-c3ccccc3O)nc(NC(=O)c3ccccc3)c2C(=O)O)c1` yielded a melting point of 250 to 253 °C.
Molecule `N#Cc1c(-c2cccc(NC(=O)CN)c2)cc(-c2ccccc2O)nc1NC(=O)c1cccs1` (as salt: hydrochloride) [Example 12, N-[3-cyano-4-[3-(glycylamino)phenyl]-6-(2-hydroxyphenyl)pyridin-2-yl]thiophene-2-carboxamide dihydrochloride] has a melting point of 210 to 217 °C.
In the case of `Cl.N#Cc1c(-c2cccc(NC(=O)CC3CCCCN3)c2)cc(-c2ccc(F)cc2O)nc1NC(=O)c1ccco1` (centres unmarked) [Example 290], the melting point is reported as 277 to 278 °C (dec.).
For `CCN1CCN(Cc2cccc(-c3cc(-c4ccc(F)cc4O)nc(NC(=O)c4ccco4)c3C#N)c2)CC1` (as salt: hydrochloride) [Example 334, N-[3-cyano-4-{3-[(4-ethylpiperazin-1-yl)methyl]phenyl}-6-(4-fluoro-2-hydroxyphenyl)pyridin-2-yl]-2-furamide dihydrochloride], the melting point was 215 to 222 °C.
Work on `CN(C)c1cccc(-c2cc(-c3ccccc3O)nc(NC(=O)c3cccs3)c2C#N)c1` [Example 38, N-{3-cyano-4-[3-(dimethylamino)phenyl]-6-(2-hydroxyphenyl)pyridin-2-yl}thiophene-2-carboxamide] yielded a melting point of 230 to 231 °C.
`N#Cc1c(-c2ccccc2C(=O)NCCN)cc(-c2ccccc2O)nc1NC(=O)c1cccs1` (as salt: hydrochloride) [Example 24, N-[4-(2-{[(2-aminoethyl)amino]carbonyl}phenyl)-3-cyano-6-(2-hydroxyphenyl)pyridin-2-yl]thiophene-2-carboxamide dihydrochloride] gave a melting point of 196 to 201 °C.
In the case of `CCN(CC)CCN(CC)c1cccc(-c2cc(-c3ccc(F)cc3O)nc(NC(=O)c3ccco3)c2C#N)c1` (as salt: hydrochloride) [Example 304, N-[3-cyano-4-{3-[[2-(diethylamino)ethyl] (ethyl)amino]phenyl}-6-(4-fluoro-2-hydroxyphenyl)pyridin-2-yl]-2-furamide dihydrochloride], the melting point is reported as 138 to 144 °C.
In the case of `Cl.N#Cc1c(-c2cccc(NC(=O)CCN)c2)cc(-c2ccc(Cl)cc2O)nc1NC(=O)c1ccccc1OC(F)(F)F`, the melting point is reported as 218 to 223 °C.
For `Cl.N#Cc1c(-c2cccc(NC(=O)CN3CCCCC3)c2)cc(-c2ccc(F)cc2O)nc1NC(=O)c1ccco1`, the melting point was 249 to 251 °C.
Work on `Cl.N#Cc1c(-c2cccc(N3CCCCC3)c2)cc(-c2ccc(F)cc2O)nc1NC(=O)c1ccco1` yielded a melting point of 240 to 242 °C.
`N#Cc1c(-c2cccc(NC(=O)CCN)c2)cc(-c2ccc(Cl)cc2O)nc1NC(=O)c1ccccc1` (as salt: trifluoroacetate) [Example 51, N-{4-[3-(β-alanylamino)phenyl]-6-(4-chloro-2-hydroxyphenyl)-3-cyanopyridin-2-yl}benzamide trifluoroacetate] gave a melting point of 160 to 167 °C.
`N#Cc1c(-c2cccc(N)c2)cc(-c2ccccc2O)nc1NC(=O)c1ccsc1` [Example 33, N-[4-(3-aminophenyl)-3-cyano-6-(2-hydroxyphenyl)pyridin-2-yl]thiophene-3-carboxamide] gave a melting point of 257 to 260 °C.
With `NCCC(=O)Nc1cccc(-c2cc(NC(=O)c3cccs3)nc(-c3ccccc3O)c2)c1` (as salt: hydrochloride) [Example 27, N-{4-[3-(β-alanylamino)phenyl]-6-(2-hydroxyphenyl)pyridin-2-yl}thiophene-2-carboxamide dihydrochloride] the melting point was 214 to 220 °C.
In the case of `CN(C)CC(=O)Nc1cccc(-c2cc(-c3ccc(F)cc3O)nc(NC(=O)c3ccco3)c2CN(C)C)c1` (as salt: hydrochloride) [Example 300, N-[3-[(dimethylamino)methyl]-4-{3-[(N,N-dimethylglycyl)amino]phenyl}-6-(4-fluoro-2-hydroxyphenyl)pyridin-2-yl]-2-furamide dihydrochloride], the melting point is reported as 186 to 194 °C.
In the case of `Cl.N#Cc1c(-c2cccc(C(=O)NCCCN)c2)cc(-c2ccccc2O)nc1NC(=O)c1cccs1`, the melting point is reported as 192 to 198 °C.
Work on `Cl.N#Cc1c(-c2cccc(NC(=O)[C@H]3CCCN3)c2)cc(-c2ccccc2O)nc1NC(=O)c1cccs1` yielded a melting point of 213 to 218 °C.
For `N#Cc1c(-c2cccc(NC(=O)[C@H](N)Cc3cnc[nH]3)c2)cc(-c2ccc(Cl)cc2O)nc1NC(=O)c1ccco1` (as salt: hydrochloride) [Example 253, N-{3-[6-(4-chloro-2-hydroxyphenyl)-3-cyano-2-(2-furoylamino)pyridin-4-yl]phenyl}-D-histidinamide dihydrochloride], the melting point was 200 to 206 °C.
With `CN(C)c1ccc(-c2cc(-c3ccccc3O)nc(NC(=O)c3cccs3)c2C#N)cc1C(=O)NCCN` (as salt: hydrochloride) [Example 248, N-[4-[3-{[(2-aminoethyl)amino]carbonyl}-4-(dimethylamino)phenyl]-3-cyano-6-(2-hydroxyphenyl)pyridin-2-yl]thiophene-2-carboxamide dihydrochloride] the melting point was 210 to 216 °C.
Molecule `N#Cc1c(-c2cccc(C(=O)NCCO)c2)cc(-c2ccccc2O)nc1NC(=O)c1cccs1` [Example 35, N-[3-cyano-4-(3-{[(2-hydroxyethyl)amino]carbonyl}phenyl)-6-(2-hydroxyphenyl)pyridin-2-yl]thiophene-2-carboxamide] has a melting point of 218 to 219 °C.
Work on `CC(C)(C)OC(=O)c1c(-c2cccc(N)c2)cc(-c2ccccc2O)nc1NC(=O)c1ccccc1` [Example 62, tert-butyl 4-(3-aminophenyl)-2-(benzoylamino)-6-(2-hydroxyphenyl)nicotinate] yielded a melting point of 162 to 164 °C.
`Cl.N#Cc1c(-c2cccc(N3CCOCC3)c2)cc(-c2ccc(F)cc2O)nc1NC(=O)c1ccco1` showed a melting point of 244 to 246 °C.
Work on `N#Cc1c(-c2cccc(NC(=O)CCN)c2)cc(-c2ccc(Cl)cc2O)nc1NC(=O)c1cccs1` (as salt: trifluoroacetate) [Example 56, N-{4-[3-(β-alanylamino)phenyl]-6-(4-chloro-2-hydroxyphenyl)-3-cyanopyridin-2-yl}thiophene-2-carboxamide trifluoroacetate] yielded a melting point of 206 to 209 °C.
Work on `COc1ccccc1C(=O)Nc1nc(-c2ccc(Cl)cc2O)cc(-c2cccc(NC(=O)CCN)c2)c1C#N.Cl` yielded a melting point of 233 to 238 °C.
